Results published in patent US6541467B1, “Thrombin inhibitors having a lactam at P3” (Corvas International, Inc., priority 2000, dated 2003).

Key:
Type in all cases: biochemical
[1] = target: T1, bovine pancreatic trypsin (Bos taurus, UniProt P00760); assay: Trypsin chromogenic enzyme assay
T1 sequence (P00760 24-246): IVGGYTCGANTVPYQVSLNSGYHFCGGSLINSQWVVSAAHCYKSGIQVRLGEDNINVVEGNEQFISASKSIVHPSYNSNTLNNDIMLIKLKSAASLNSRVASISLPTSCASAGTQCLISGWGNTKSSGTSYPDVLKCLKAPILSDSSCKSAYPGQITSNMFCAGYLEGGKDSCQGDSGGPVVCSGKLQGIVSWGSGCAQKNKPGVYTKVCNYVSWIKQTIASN
Protocol: (§1) The ability of compounds of the present invention to act as a selective inhibitor of thrombin activity was assessed by determining the concentration of test-compound which inhibited the activity of this enzyme by 50%, (IC50), and comparing this value to that determined for all or some of the following related serine proteases: recombinant tissue plasminogen activator (rt-PA), plasmin, activated protein C, chymotrypsin, factor Xa and trypsin.
(§2) The buffer used for all assays was HBSA (10 mM HEPES, pH 7.5, 150 mM sodium chloride, 0.1% bovine serum albumin).
(§3) The assay for IC50 determinations was conducted by combining in appropriate wells of a Corning microtiter plate, 50 microliters of HBSA, 50 microliters of the test compound at a specified concentration (covering a broad concentration range) diluted in HBSA (or HBSA alone for V0 (uninhibited velocity) measurement), and 50 microliters of the enzyme diluted in HBSA. Following a 30 minute incubation at ambient temperature, 50 microliters of the substrate at the concentrations specified below were added to the wells, yielding a final total volume of 200 microliters. The initial velocity of chromogenic substrate hydrolysis was measured by the change in absorbance at 405 nm using a Thermo Max® Kinetic Microplate Reader over a 5 minute period in which less than 5% of the added substrate was utilized. The concentration of added inhibitor which caused a 50% decrease in the initial rate of hydrolysis was defined as the IC50 value.
Trypsin catalytic activity was determined using the chromogenic substrate, S-2222 (benzoyl-L-isoleucine-L-glutamic acid-[gamma-methyl ester]-L-arginine-p-nitroanilide), which was obtained from DiaPharma Group. […] Purified (3×-crystallized; TRL3) bovine pancreatic trypsin was obtained from Worthington Biochemical Corp. The enzyme was reconstituted in deionized water and diluted into HBSA prior to assay in which the final concentration was 0.5 nM.

human plasmin = target: T2, human plasmin (Homo sapiens, UniProt P00747); assay: Plasmin chromogenic enzyme assay
T2 construct: Purified human plasmin; purchased Enzyme Research Laboratories, Inc
T2 sequence (P00747 581-810 limits assumed): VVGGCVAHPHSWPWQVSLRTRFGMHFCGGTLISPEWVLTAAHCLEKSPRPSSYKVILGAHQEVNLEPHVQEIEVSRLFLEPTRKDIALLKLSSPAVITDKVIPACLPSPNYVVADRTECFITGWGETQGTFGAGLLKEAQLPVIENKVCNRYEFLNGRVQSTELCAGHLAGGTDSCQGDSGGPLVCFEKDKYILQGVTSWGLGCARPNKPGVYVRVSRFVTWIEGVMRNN
T2 sequence (P00747 97-580 partner limits assumed): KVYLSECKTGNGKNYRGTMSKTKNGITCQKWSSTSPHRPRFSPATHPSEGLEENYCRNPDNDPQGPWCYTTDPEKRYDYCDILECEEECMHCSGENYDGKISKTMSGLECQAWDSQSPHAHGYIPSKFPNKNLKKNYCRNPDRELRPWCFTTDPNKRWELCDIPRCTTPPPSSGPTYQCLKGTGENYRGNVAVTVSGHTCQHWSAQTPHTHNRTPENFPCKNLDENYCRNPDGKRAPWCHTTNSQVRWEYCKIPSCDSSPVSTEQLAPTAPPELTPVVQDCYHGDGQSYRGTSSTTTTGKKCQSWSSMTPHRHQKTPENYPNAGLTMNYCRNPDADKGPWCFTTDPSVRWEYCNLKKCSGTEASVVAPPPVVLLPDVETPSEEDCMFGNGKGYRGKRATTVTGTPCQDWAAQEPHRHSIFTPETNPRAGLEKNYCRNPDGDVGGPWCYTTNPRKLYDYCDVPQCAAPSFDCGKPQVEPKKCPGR
Protocol: as §1, §2, §3
Plasmin catalytic activity was determined using the chromogenic substrate, S-2366 [L-pyroglutamyl-L-prolyl-L-arginine-p-nitroaniline hydrochloride], which was obtained from DiaPharma group. The substrate was made up in deionized water followed by dilution in HBSA prior to the assay in which the final concentration was 300 micromolar (about 2:.5-times Km). Purified human plasmin was obtained from Enzyme Research Laboratories, Inc. The enzyme was diluted into HBSA prior to assay in which the final concentration was 1.0 nM.

human α-thrombin = target: T3, human α-thrombin (Homo sapiens, UniProt P00734); assay: Thrombin (fIIa) chromogenic enzyme assay; settings: for IC50: 0 min
T3 construct: Purified human α-thrombin; purchased Enzyme Research Laboratories, Inc
Protocol: For screening compounds using these assays, the compounds of the present invention are dissolved in buffer to give solutions containing concentrations such that assay concentrations range from 0 to 100 micromolar. In the assays for thrombin, plasmin, t-PA, aPC, chymotrypsin, and trypsin, a chromogenic synthetic substrate is added to a solution containing test compound and the enzyme of interest and the residual catalytic activity of that enzyme is determined spectrophometrically. The IC50 of a compound of the present invention is determined from the rate of substrate turnover caused by the specific enzyme being measured. IC50 is the concentration of test compound which gives 50% inhibition of the rate of substrate turnover. Likewise, the Ki of a compound of the present invention is determined from the rate of substrate turnover caused by the specific enzyme being measured at various […] concentrations. Example A provides exemplars of in vitro assays used to select the compounds of the present invention.
as §1, §2
as §3, with “Following a 30 minute incubation at ambient temperature, 50 microliters of the substrate at the concentrations specified below were added to the wells, yielding a final total volume of 200 microliters.” left out
Enzyme activity was determined using the chromogenic substrate, Pefachrome t-PA (CH3SO2-D-hexahydrotyrosine-glycyl-L-Arginine-p-nitroaniline, obtained from Pentapharm Ltd.). The substrate was reconstituted in deionized water prior to use. Purified human α-thrombin was obtained from Enzyme Research Laboratories, Inc. The buffer used for all assays was HBSA (10 mM HEPES, pH 7.5, 150 mM sodium chloride, 0.1% bovine serum albumin).
The initial velocity of Pefachrome t-PA hydrolysis was measured by the change in absorbance at 405 nm using a Thermo Max® Kinetic Microplate Reader over a 5 minute period in which less than 5% of the added substrate was utilized. The concentration of:added inhibitor which caused a 50% decrease in the initial rate of hydrolysis was defined as the IC50 value.

Factor Xa = target: T4, Factor Xa (Homo sapiens, UniProt P00742); assay: Factor Xa chromogenic enzyme assay; settings: read-out: fXa IC50
T4 construct: purchased Enzyme Research Laboratories, Inc. (South Bend, Ind.)
T4 sequence (P00742 235-488 limits assumed): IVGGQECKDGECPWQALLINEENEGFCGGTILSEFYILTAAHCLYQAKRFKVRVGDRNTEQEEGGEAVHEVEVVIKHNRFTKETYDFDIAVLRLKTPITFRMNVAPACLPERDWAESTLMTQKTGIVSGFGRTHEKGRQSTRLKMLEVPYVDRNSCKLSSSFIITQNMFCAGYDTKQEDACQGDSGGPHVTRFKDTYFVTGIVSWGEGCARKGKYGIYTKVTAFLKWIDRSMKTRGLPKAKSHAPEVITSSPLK
T4 sequence (P00742 41-179 partner limits assumed): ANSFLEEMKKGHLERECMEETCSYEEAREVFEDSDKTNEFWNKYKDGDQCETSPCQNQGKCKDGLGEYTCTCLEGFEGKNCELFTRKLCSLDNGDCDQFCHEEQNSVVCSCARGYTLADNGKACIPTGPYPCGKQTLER
Protocol: as §1, §2, §3
Factor Xa catalytic activity was determined using the chromogenic substrate S-2765 (N-benzyloxycarbonyl-D-arginine-L-glycine-L-arginine-p-nitroaniline), obtained from DiaPharma Group (Franklin, Ohio). All substrates were reconstituted in deionized water prior to use. […] Purified human Factor X was obtained from Enzyme Research Laboratories, Inc. (South Bend, Ind.) and Factor Xa (FXa) was activated and prepared from it as described [Bock, P. E., Craig, P. A., Olson, S. T., and Singh, P. Arch. Biochem. Biophys. 273:375-388 (1989)]. The enzyme was diluted into HBSA prior to assay in which the final concentration was 0.25 nM.

N[C@H]1CC[C@H](CNC(=O)CN2CCCC[C@H](NS(=O)(=O)Cc3ccccc3)C2=O)CC1 [Example 65]
IC50 [1]: ≥ 2500 nM
IC50 (human plasmin): ≥ 2500 nM
Ki (human α-thrombin): 100 to 300 nM
IC50 (human α-thrombin): 300 to 2500 nM
IC50 (Factor Xa): ≥ 2500 nM

N=C(N)N1CCC(CNC(=O)CN2CCCC[C@H](NS(=O)(=O)c3ccccc3)C2=O)CC1 [Example 41, 3-(Benzenesulfonyl)amino-1-(1-amidino-4-methylenecarboxamido-methylpiperidinyl)-4,5,6,7-tetrahydroazepin-2-one]
IC50 [1]: ≥ 2500 nM
IC50 (human plasmin): ≥ 2500 nM
Ki (human α-thrombin): ≤ 100 nM
IC50 (human α-thrombin): 300 to 2500 nM
IC50 (Factor Xa): ≥ 2500 nM

COc1ccc(S(=O)(=O)N[C@H]2CCCCN(CC(=O)NCC3CCN(C(=N)N)CC3)C2=O)cc1OC [Example 43]
IC50 [1]: ≥ 2500 nM
IC50 (human plasmin): ≥ 2500 nM
Ki (human α-thrombin): ≤ 100 nM
IC50 (human α-thrombin): 300 to 2500 nM
IC50 (Factor Xa): ≥ 2500 nM

N/C(=N\O)c1ccc(CNC(=O)CN2CCCC[C@H](NS(=O)(=O)c3ccc4c(c3)CCO4)C2=O)cc1 [Example 37]
IC50 [1]: 300 to 2500 nM
IC50 (human plasmin): ≥ 2500 nM
Ki (human α-thrombin): 100 to 300 nM
IC50 (human α-thrombin): 300 to 2500 nM
IC50 (Factor Xa): ≥ 2500 nM

N=C(N)N1CCC(CNC(=O)CN2CCCC[C@H](NS(=O)(=O)c3ccc4ccccc4c3)C2=O)CC1 [Example 40]
IC50 [1]: ≥ 2500 nM
IC50 (human plasmin): ≥ 2500 nM
Ki (human α-thrombin): ≥ 2500 nM
IC50 (human α-thrombin): ≥ 2500 nM
IC50 (Factor Xa): ≥ 2500 nM
